biological target: 11-beta-hydroxysteroid dehydrogenase 1 (Homo sapiens, UniProt P28845); assay: Inhibition of 11beta-HSD1
Sequence (P28845 whole entry): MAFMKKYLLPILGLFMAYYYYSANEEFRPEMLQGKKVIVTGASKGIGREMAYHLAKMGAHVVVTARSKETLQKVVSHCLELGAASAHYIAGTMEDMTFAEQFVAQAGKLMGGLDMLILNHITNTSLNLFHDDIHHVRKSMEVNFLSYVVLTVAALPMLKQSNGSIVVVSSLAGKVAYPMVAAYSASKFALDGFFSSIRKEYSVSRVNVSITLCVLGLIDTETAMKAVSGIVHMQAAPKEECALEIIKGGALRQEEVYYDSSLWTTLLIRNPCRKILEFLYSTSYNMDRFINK

SMILES | IC50 [nM]
O=C(c1ccc(NCc2ccc(F)cc2)cc1)N1CCC[C@H]2CCCC[C@@H]21 | 50.1
CCCc1nnc(C23CC4CC(CC(C4)C2)C3)n1CC | 52.5
O=C(Nc1ccc(C(=O)N2CCC[C@H]3CCCC[C@@H]32)cc1)c1ccc(Cl)cc1 | 1100
CCC1CCCCN1C(=O)c1ccc(NC(=O)c2ccc(Cl)cc2Cl)cc1 (stereo not drawn) | 1070
CC(C)(Oc1ccc(N2CCOCC2)cn1)C(=O)N[C@H]1C2CC3CC1C[C@](C(N)=O)(C3)C2 | 43.7
CN1CCN(c2ccc(OC(C)(C)C(=O)N[C@H]3C4CC5CC3C[C@](C(N)=O)(C5)C4)nc2)CC1 | 186
O=C(Cc1ccccc1)Nc1ccc(C(=O)N2CCC[C@H]3CCCC[C@@H]32)cc1 | 380
O=C(c1ccc(C(=O)N2CCC[C@H]3CCCC[C@@H]32)cc1)N1CCCc2ccccc21 | 182
CC1CCCCN1C(=O)c1ccc(NC(=O)c2ccc(Cl)cc2Cl)cc1 (stereo not drawn) | 7940
CCCCn1c(C)nnc1C12CC3CC(CC(C3)C1)C2 | 72.4
O=C(Nc1ccc(C(=O)N2CCC[C@H]3CCCC[C@@H]32)cc1)c1ccccc1Cl | 1580
CC(C)(C(=O)N[C@H]1C2CC3CC1C[C@](C(N)=O)(C3)C2)c1ccc(N2CCOCC2)nc1 | 46.8

These reach a lower IC50. Values come first.

IC50 [nM] | SMILES
40.7 | CC(C)(Oc1ccc(Cl)cc1)C(=O)N[C@H]1C2CC3CC1C[C@](Cc1nnn[nH]1)(C3)C2
28.8 | CNc1ccc(C(C)(C)C(=O)N[C@H]2C3CC4CC2C[C@](C(N)=O)(C4)C3)cn1
28.2 | CC(C)(Oc1ccc(C#N)cn1)C(=O)N[C@H]1C2CC3CC1C[C@](C(N)=O)(C3)C2
21.9 | CC(C)(Oc1ccc(Cl)cc1)C(=O)N[C@H]1C2CCCC1C[C@H](C(N)=O)C2
21.9 | Cn1c(-c2ccc(C=O)cc2Cl)nnc1C12CCC(c3nc(-c4ccc(F)cc4)no3)(CC1)CC2
14.1 | O=C(Nc1cccc(C(=O)N2CCC[C@H]3CCCC[C@@H]32)c1)c1ccccc1
14.1 | CC(C)(C(=O)N[C@H]1C2CC3CC1C[C@](C(N)=O)(C3)C2)c1ccc(C#N)cn1
11 | CC(C)(Oc1ccc(C#N)cn1)C(=O)N[C@H]1C2COCC1C[C@H](C(N)=O)C2
11 | CCCn1c(CC)nnc1C12CC3CC(CC(C3)C1)C2
5.01 | CCCCCC12CCC(c3nnc4n3CCCCC4)(CC1)CC2
5.01 | CC(C)(Oc1ccc(-n2cccn2)cn1)C(=O)N[C@H]1C2CC3CC1C[C@](C(N)=O)(C3)C2

— ChEMBL document CHEMBL1144041, “Docking-based 3D-QSAR study for 11beta-HSD1 inhibitors” (Bioorg Med Chem Lett, 2008)
